According to patent US9403756B2, “N-phenyl anthranilic acid derivatives and uses thereof” (Ramot at Tel-Aviv University Ltd., priority 2007, dated 2016):
“Also recorded” adds a separate entry of the source. Like-named read-outs stand apart in the source and are kept apart here.

Legend:
[1] = biological target: T1, Kv7.2/3 channels (Homo sapiens, UniProt O43525+O43526); assay: Kv7.2/3 channels coexpressed in CHO cells, whole-cell patch-clamp; format: cell-based; details: for Activity: M-channel modulation, Kv7.2 and Kv7.3 subunits coexpressed in CHO cells; for EC50: read-out: EC50; for ΔV50 (mV): left-shift of the activation curve of Kv7.2/3 channels
T1 construct: expressed in transfected cells; host or cells: CHO cells
Protocol: Chinese hamster ovary (CHO) cells were grown in Dulbecco's modified Eagle's medium (DMEM) supplemented with 2 mM glutamine, 10% fetal calf serum and antibiotics. Briefly, 40,000 cells seeded on poly-D-lysine-coated glass coverslips (13 mm diameter) in a 24-multiwell plate were transfected with pIRES-CD8 (0.5 μg) as a marker for transfection, and with Kv7.2 (0.5 μg) and Kv7.3 (0.5 μg) or TRPV1 […] or TRPV6 […].
For electrophysiology, transfected cells were visualized approximately 40 hours following transfection, using anti-CD8 antibody-coated beads. Transfection was performed using Fugene 6 (Roche, Indianapolis Ind., USA) according to the manufacturer's protocol.
Voltage-clamp recordings in CHO cells were performed, using the whole-cell configuration of the patch-clamp technique. Signals were amplified using an Axopatch 200B patch-clamp amplifier (Molecular Devices, Sunnyvale, Calif.), sampled at 2 kHz and filtered at 800 Hz via a 4-pole Bessel low pass filter. […] The patch pipettes were pulled from borosilicate glass (Warner Instrument Corp, USA) with a resistance of 2-5 MΩ. For K^+ current recordings in CHO cells, the intracellular pipette solution contained (in mM): 130 KCl, 1 MgCl2, 5 K2ATP, 5 EGTA, 10 HEPES, adjusted with KOH to pH 7.4 (290 mOsm). The extracellular solution contained (in mM): 140 NaCl, 4 KCl, 1.8 CaCl2, 1.2 MgCl2, 11 glucose, 5.5 HEPES, adjusted with NaOH to pH 7.4 (310 mOsm).
Data analysis was performed using the Clampfit program (pClamp 9.2, Molecular Devices), Microsoft Excel (Microsoft) and Prism 4.0 (GraphPad). Chord conductance (G) was calculated by using the following equation: G=I/(V−Vrev) where I corresponds to the current amplitude measured at the end of the pulse and Vrev, the calculated reversal potential. G was estimated at various test voltages V and then, normalized to a maximal conductance value, Gmax. Activation curves were fitted by one Boltzmann distribution: G/Gmax=1/{1+exp[(V50−V)/s]} where V50 is the voltage at which the current is half-activated and s is the slope factor. All data were expressed as mean±SEM. Statistically significant differences were assessed by Student's t-test. Analysis of sEPSCs and sIPSCs was done using the Clampfit program (pClamp 9.2, Molecular Devices) and included evaluation of the individual events as well as the average event amplitude and the integral of the event (total charge transfer).
In these studies, the impact of the compounds on M-channel activity was measured by the heterologous coexpression of Kv7.2 and Kv7.3 subunits in CHO cells.

[2] = tested on: COX; assay: Anti-COX activity in cell culture, CT26 and D122 cell lines (results in words); format: cell-based, mouse; details: COX-dependent synthesis of PGE2
Protocol: Mouse colon adenocarcinoma CT26 and mouse lewis lung carcinoma D122 cells were grown in DMEM (D122) or RPMI (CT26) supplemented with 10% fetal calf serum, 4% glutamine, 1% penicillin-streptomycin-nystatin and 3% non essential amino acids (D122) and were kept in a humidified 37° C. incubator with 5% CO2. For the COX activity assays, cells were grown onto 24 multi-well plates.
Before the assay, cells were washed with serum-free medium; then the tested compounds were added to the medium and incubated for 30 minutes at 37° C. after which 30 μM arachidonic acid were added and incubated for additional 20 minutes. At the end of the incubation period, 10 μM Indomethacin were added to stop the reaction and medium was transferred to another 24 multi-well plate for measuring PGE2 production by radioimmunoassay (DuPont-NEN; Boston Mass.) according to manufacturer protocol. Protein determination was assayed on scraped cells using the Bradford method (1976) [Bradford M. M. 1976. Anal. Biochem. 72:248-254], with BSA as a standard and was used to normalize the amount of PGE2 production.
The anti-COX activity of NH25, NH29 and NH30 was examined in Mouse colon adenocarcinoma CT26 and mouse lewis lung carcinoma D122 cell lines. Cells were incubated with each of the tested compounds and the level of the COX-dependent synthesis of PGE2 was quantified using radioimmunoassay techniques.

[3] = tested on: maximal electroshock seizure model (MES) in ICR mice; assay: Maximal electroshock seizure test (MES); format: in vivo; details: 30 minutes before electroshock, data not shown
Protocol: The anti-convulsant effect was measured by the maximal electroshock seizure model (MES) in ICR mice as previously described. The procedures followed for experimentation and maintenance of the animals were approved by the animal research ethics committee of Tel Aviv University and in accordance with the Guide for the Care and Use of Laboratory Animals (1996, National Academy of Sciences, Washington D.C.). Briefly, maximal electroshock was induced in adult mice by means of two transcorneal electrodes delivering an alternative current of 50 mA at 60 Hz for 0.2 sec using rodent shocker (Hugo Sachs Electronik, type 221). […] The compounds, dissolved in 0.9% saline, were administered intraperitoneally 30 minutes before the electroshock was performed. Animals failing to show tonic hind limb extension were scored as protected and were expressed in percentage.

[4] = biological target: T2, KCNQ2 mutant R207W (Homo sapiens, UniProt O43526, R207W); format: cell-based
T2 construct: expressed in transfected cells; host or cells: CHO cells
T2 sequence (O43526 whole entry R207W): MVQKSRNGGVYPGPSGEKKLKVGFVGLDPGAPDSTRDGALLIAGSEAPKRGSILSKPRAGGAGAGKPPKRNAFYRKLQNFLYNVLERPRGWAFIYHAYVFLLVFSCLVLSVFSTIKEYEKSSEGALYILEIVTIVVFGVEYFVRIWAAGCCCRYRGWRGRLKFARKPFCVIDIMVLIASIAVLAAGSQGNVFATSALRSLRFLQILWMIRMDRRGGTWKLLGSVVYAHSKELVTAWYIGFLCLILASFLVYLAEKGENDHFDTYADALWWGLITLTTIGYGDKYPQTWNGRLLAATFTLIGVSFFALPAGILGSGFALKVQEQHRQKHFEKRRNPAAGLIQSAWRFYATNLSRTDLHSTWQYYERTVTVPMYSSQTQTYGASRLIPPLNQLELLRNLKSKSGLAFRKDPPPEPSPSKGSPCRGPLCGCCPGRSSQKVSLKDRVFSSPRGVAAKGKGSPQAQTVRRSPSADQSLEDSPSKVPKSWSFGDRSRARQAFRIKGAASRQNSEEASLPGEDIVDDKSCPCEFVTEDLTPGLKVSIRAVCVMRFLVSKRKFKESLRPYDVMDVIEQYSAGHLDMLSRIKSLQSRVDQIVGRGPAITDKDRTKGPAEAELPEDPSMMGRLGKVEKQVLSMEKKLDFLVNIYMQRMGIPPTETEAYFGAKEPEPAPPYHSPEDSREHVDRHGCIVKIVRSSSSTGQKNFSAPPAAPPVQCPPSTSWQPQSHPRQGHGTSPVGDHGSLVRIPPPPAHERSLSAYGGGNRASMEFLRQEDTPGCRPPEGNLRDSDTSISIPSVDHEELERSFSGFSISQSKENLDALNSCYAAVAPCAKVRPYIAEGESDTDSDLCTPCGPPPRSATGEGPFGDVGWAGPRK
Source text: FIGS. 10A-D present the potentiating effect of NH29, an exemplary channel opener compound according to embodiments of the present invention, on wild type KCNQ2 (FIGS. 10A and 10B) and R207W mutant (FIGS. 10C and 10D) channels, as expressed in activation curve measurements, showing that NH29 left-shifts the activation curve (ΔV50) by −15.5 mV and −5.5 mV in the case of the wild-type and the mutant, respectively, and showing that NH29 enhances the current of wild-type and the mutant by about 3.4-fold (at −40 mV) and 1.5-fold (at −20 mV), respectively.
FIGS. 11A-F present the potentiating effect of NH29, an exemplary channel opener compound according to embodiments of the present invention, and Retigabine, on KCNQ2 mutants R207W and W236L mutant. Shown are representative traces recorded from CHO cell transfected with the KCNQ2 mutant R207W 0, 1 and 4-4.5 minutes after external application of 25 μM of NH29 and wherein the membrane potential was stepped from −90 mV holding potential to −20 mV for 1.5 seconds pulse duration (FIG. 11A), or 0, 1 and 4 minutes after external application of 25 μM of Retigabine wherein the membrane potential was stepped from −90 mV holding potential to −40 mV for 1.5 seconds pulse duration (FIG. 11B). FIGS. 11C and 11D show representative traces recorded from CHO cells transfected with the KCNQ2 mutant W236L 0, 1 and 6 minutes after external application of 25 μM of NH29 (FIG. 11C) or 0 and 5 minutes after external application of 10 μM of Retigabine (FIG. 11D) and wherein the membrane potential was stepped from −90 mV holding potential to −40 mV for 1.5 seconds pulse duration. FIG. 11E presents superimposed traces, showing the effects of Retigabine (RTG) and NH29 on the channel activity of KCNQ2 mutant W236L as measured at −40 mV; and FIG. 11F presents a bar diagram comparing the potentiating effect of NH29 and Retigabine on native KCNQ2 and KCNQ2 mutants, wherein the opener effect is expressed as percent of the control current in the absence of the opener.
Voltage-clamp recordings in CHO cells were performed, using the whole-cell configuration of the patch-clamp technique. Signals were amplified using an Axopatch 200B patch-clamp amplifier (Molecular Devices, Sunnyvale, Calif.), sampled at 2 kHz and filtered at 800 Hz via a 4-pole Bessel low pass filter. Data were acquired using pClamp 9.2 software (Molecular Devices) and an IBM compatible Pentium IV computer in conjunction with a DigiData 1322A interface (Molecular Devices). The patch pipettes were pulled from borosilicate glass (Warner Instrument Corp, USA) with a resistance of 2-5 MΩ. For K^+ current recordings in CHO cells, the intracellular pipette solution contained (in mM): 130 KCl, 1 MgCl2, 5 K2ATP, 5 EGTA, 10 HEPES, adjusted with KOH to pH 7.4 (290 mOsm). The extracellular solution contained (in mM): 140 NaCl, 4 KCl, 1.8 CaCl2, 1.2 MgCl2, 11 glucose, 5.5 HEPES, adjusted with NaOH to pH 7.4 (310 mOsm). Series resistances (3-13 MΩ) were compensated (75-90%) and periodically monitored.

[5] = opener potency, concentration-dependent left-shift in half-activation potential ΔV50, sigmoidal fit
[6] = compounds whose Activity is Blocker

Compound | Activity [1] | other results
O=C(O)Cc1ccccc1Nc1c(Cl)cccc1Cl [Diclofenac, reference compound] | Opener | EC50 [1, 5]: 2.6 µM
Cc1ccc(Cl)c(Nc2ccccc2C(=O)O)c1Cl [Meclofenamic, Meclofenamic acid, reference compound] | Opener | ΔV50 (mV) [1]: −22.7 mV; EC50 [1, 5]: 25 µM
CN(CCO)C(=O)Cc1ccccc1Nc1c(Cl)cccc1Cl [NH5] | Opener | 
O=C(Cc1ccccc1Nc1c(Cl)cccc1Cl)OCCOCCO [NH6] | Opener | ΔV50 (mV) [1]: −18.7 mV; EC50 [1, 5]: 18 µM
O=C(Cc1ccccc1Nc1c(Cl)cccc1Cl)OCCO [NH7] | Opener | ΔV50 (mV) [1]: −4.1 mV
COCCOCCOCCOCCOC(=O)Cc1ccccc1Nc1c(Cl)cccc1Cl [NH8] | totally inactive | 
CC(C)COC(=O)Cc1ccccc1Nc1c(Cl)cccc1Cl [NH9] | potent M-channel blockers; also recorded: Blocker | EC50 [1, 6]: 50 µM
Cc1c(Cl)cccc1Nc1ccccc1C(=O)OCC(C)C [NH10] | totally inactive | 
CC(C)COC(=O)c1ccccc1Nc1cccc(C(F)(F)F)c1 [NH11] | totally inactive | 
COCCOCCOC(=O)Cc1ccccc1Nc1c(Cl)cccc1Cl [NH13] | totally inactive | 
O=C(Cc1ccccc1Nc1c(Cl)cccc1Cl)NCCOCCO [NH14] | Opener | ΔV50 (mV) [1]: −12.6 mV
Cc1cccc(Nc2ccccc2C(=O)NCCOCCO)c1C [NH15] | Opener | ΔV50 (mV) [1]: −8.4 mV; EC50 [1, 5]: 3 µM
O=C(NCCOCCO)c1ccccc1Nc1cccc(C(F)(F)F)c1 [NH16] | Opener | ΔV50 (mV) [1]: −5.5 mV; EC50 [1, 5]: 9 µM
Cc1c(Cl)cccc1Nc1ccccc1C(=O)NCCOCCO [NH18] | Opener | ΔV50 (mV) [1]: −3.7 mV; EC50 [1, 5]: 6 µM
O=C(Cc1ccccc1Nc1c(Cl)cccc1Cl)OCC1CO1 (stereo not shown) [NH21] | potent M-channel blockers; also recorded: Blocker | EC50 [1, 6]: 100 µM
O=C(O)Cc1cc([N+](=O)[O-])ccc1Nc1c(Cl)cccc1Cl [NH24] | Opener | 
O=C(Cc1ccccc1Nc1c(Cl)cccc1Cl)NCCO [NH27] | Opener | 
O=C(Cc1cc([N+](=O)[O-])ccc1Nc1c(Cl)cc([N+](=O)[O-])cc1Cl)NCCO [NH28] | Opener | 
O=C(Cc1cc([N+](=O)[O-])ccc1Nc1c(Cl)cccc1Cl)NCCO [NH30] | Opener | ΔV50 (mV) [1]: −12.2 mV; EC50 [1, 5]: 17 µM; anti-COX activity [2]: did not exhibit anti-COX activity
CC(C(=O)O)c1cccc(Oc2ccccc2)c1 (stereo not shown) [fenoprofen, reference compound] | do not activate Kv7.2/3 channels | 
O=C(O)c1ccccc1Nc1cccc(C(F)(F)F)c1 [flufenamate, reference compound] | potent M-channel openers | 
CC(C(=O)O)c1ccc(-c2ccccc2)c(F)c1 (stereo not shown) [flurbiprofen, reference compound] | do not activate Kv7.2/3 channels | 
Cc1cccc(Nc2ccccc2C(=O)O)c1C [mefenamate, reference compound] | potent M-channel openers | 
COc1ccc2cc([C@H](C)C(=O)O)ccc2c1 [naproxen, reference compound] | do not activate Kv7.2/3 channels | 
O=C1NC(=O)C(c2ccccc2)(c2ccccc2)N1 [phenyloin] |  | protection in MES ([3]; 20 mg/kg intraperitoneal): fully prevented hind limb extension
CCCC(CCC)C(=O)[O-].[Na+] [sodium valproate] |  | protection in MES ([3]; 500 mg/kg intraperitoneal): fully prevented hind limb extension
Cc1c(Cl)cccc1Nc1ccccc1C(=O)O [tolfenamate, reference compound] | potent M-channel openers | 
Zinc pyrithione [reference compound] |  | activation of S4 mutant R207W [4]: activate very potently
